Measurements: article PMC6707612, “Cyclic-di-GMP binds to histidine kinase RavS to control RavS-RavR phosphotransfer and regulates the bacterial lifestyle transition between virulence and swimming” (PLoS Pathogens, 2019)

Biological target: T1, RavR^ΔEAL (Xanthomonas campestris pv. campestris, UniProt Q8P9A7)
T1 sequence (Q8P9A7 with tags, fused parts or gaps): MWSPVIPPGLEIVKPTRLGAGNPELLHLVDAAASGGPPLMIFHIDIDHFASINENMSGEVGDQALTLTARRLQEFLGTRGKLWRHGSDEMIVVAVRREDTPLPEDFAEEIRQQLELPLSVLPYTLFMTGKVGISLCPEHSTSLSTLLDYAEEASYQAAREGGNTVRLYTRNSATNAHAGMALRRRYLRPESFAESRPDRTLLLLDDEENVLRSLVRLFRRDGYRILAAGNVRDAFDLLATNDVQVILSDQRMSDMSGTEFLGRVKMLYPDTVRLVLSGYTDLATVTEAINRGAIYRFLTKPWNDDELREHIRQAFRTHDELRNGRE
Test: microscale thermophoresis (MST) binding
Details: 20 nM fluorescein-labelled nucleotide

Q: With `Nc1nc2c(ncn2[C@@H]2O[C@@H]3COP(=O)(O)O[C@H]4[C@@H](O)[C@H](n5cnc6c(=O)[nH]c(N)nc65)O[C@@H]4COP(=O)(O)O[C@H]3[C@H]2O)c(=O)[nH]1` [c-di-GMP, Cyclic di-GMP] as the compound, how does the “dissociation constant (Kd)” value read?
A: did not bind
